Patent US12559474B2, “Triazine derivatives having virus replication inhibitory activity and pharmaceutical composition comprising the same” (priority 2021, dated 2026)
Like-named read-outs stand apart in the source and are kept apart here.

How the values were obtained:
SARS-CoV-2 = test: microbe, parasite or virus in culture; format: cell-based; settings: Severe acute respiratory syndrome coronavirus 2, VeroE6/TMPRSS2, 72 h, 50% SARS-CoV-2 infected cell death inhibitory concentration, VeroE6/TMPRSS2 cells, 3 days culture
SARS-CoV-2 3CL protease = SARS-CoV-2 3CL protease (Severe acute respiratory syndrome coronavirus 2, UniProt P0DTD1); test: biochemical; settings: 50% SARS-CoV-2 3CL protease inhibitory concentration, read-out: IC50

Row | Compound | EC50 (SARS-CoV-2; class symbols) | IC50 (SARS-CoV-2 3CL protease; given as class symbols) | EC50 (SARS-CoV-2; CellTiter-Glo 2.0) | IC50 (SARS-CoV-2 3CL protease; RapidFire MS)
1 | COc1ccc(Nc2nc(=O)n(Cc3ncn(C)n3)c(=O)n2Cc2cc(F)c(F)c(F)c2)c(Cl)c1 [Compound I-0346] | < 1000 nM | < 100 nM |  | 
2 | N#Cc1cc(Cn2c(Nc3ccc4c(c3)CCO4)nc(=O)n(-c3cncc(Cl)c3)c2=O)ccc1F [Compound I-0348] | < 1000 nM | < 100 nM |  | 
3 | N#Cc1cc(Cn2c(Nc3ccc4c(c3)CCO4)nc(=O)n(-c3cncc(C(F)F)c3)c2=O)ccc1F [Compound I-0349] | 1000 to 10000 nM | < 100 nM |  | 
4 | N#Cc1cc(Cn2c(Nc3ccc4c(c3)CCO4)nc(=O)n(-c3cncc(F)c3)c2=O)ccc1F [Compound I-0350] | < 1000 nM | < 100 nM |  | 
5 | N#Cc1cc(Cn2c(Nc3ccc4c(c3)CCO4)nc(=O)n(-c3cncc4ccccc34)c2=O)ccc1F [Compound I-0351] |  |  | 74.7 nM | 4.3 nM
6 | N#Cc1cc(Cn2c(Nc3ccc4nn(CC(F)F)cc4c3)nc(=O)n(-c3cncc4ccccc34)c2=O)ccc1F [Compound I-0352] | < 1000 nM | < 100 nM |  | 
7 | Cn1cc2cc(Nc3nc(=O)n(-c4cncc5ccccc45)c(=O)n3Cc3ccc(F)c(C#N)c3)ccc2n1 [Compound I-0353] |  |  | 306 nM | 5.4 nM
8 | Cc1cncc(-n2c(=O)nc(Nc3ccc4c(c3)CCO4)n(Cc3ccc(F)c(C#N)c3)c2=O)c1 [Compound I-0354] |  |  | 107 nM | 5 nM
9 | Cc1cncc(-n2c(=O)nc(Nc3ccc4nn(CC(F)F)cc4c3)n(Cc3ccc(F)c(C#N)c3)c2=O)c1 [Compound I-0355] | < 1000 nM | < 100 nM | 339 nM | 8.7 nM
10 | O=c1[nH]cccc1Cn1c(=O)nc(Nc2cc3cn(C(F)F)nc3cc2Cl)n(Cc2cc(F)c(F)c(F)c2)c1=O [Compound I-0357] | 1000 to 10000 nM | < 100 nM |  | 
11 | COc1ccc(Nc2nc(=O)n(Cc3ccc(C)[nH]c3=O)c(=O)n2Cc2cc(F)c(F)c(F)c2)cc1 [Compound I-0358] |  | 100 to 1000 nM | 7450 nM | 120 nM
12 | Cn1cc2cc(Nc3nc(=O)n(Cc4cc(Cl)c[nH]c4=O)c(=O)n3Cc3ccc(F)c(C#N)c3)c(Cl)cc2n1 [Compound I-0359] | 1000 to 10000 nM | < 100 nM |  | 
13 | Cn1nc2cc(Cl)c(Nc3nc(=O)n(Cc4cccnc4O)c(=O)n3Cc3cc(F)c(F)c(F)c3)cc2c1CCCO [Compound I-0364] | 1000 to 10000 nM | < 100 nM |  | 
14 | COCCCc1c2cc(Nc3nc(=O)n(Cc4ccc[nH]c4=O)c(=O)n3Cc3cc(F)c(F)c(F)c3)c(Cl)cc2nn1C [Compound I-0365] | 1000 to 10000 nM | < 100 nM |  | 
15 | CC(C)n1cc2cc(Nc3nc(=O)n(Cc4cccnc4O)c(=O)n3Cc3cc(F)c(F)c(F)c3)c(Cl)cc2n1 [Compound I-0366] | 1000 to 10000 nM | < 100 nM |  | 
16 | CNC(=O)Cn1cc2cc(Nc3nc(=O)n(Cc4ccc[nH]c4=O)c(=O)n3Cc3cc(F)c(F)c(F)c3)c(Cl)cc2n1 [Compound I-0368] | 1000 to 10000 nM | < 100 nM |  | 
17 | Cc1cc2nn(C)cc2cc1Nc1nc(=O)n(-c2cccc3cnccc23)c(=O)n1Cc1cc(F)c(F)c(F)c1 [Compound I-0369] | 1000 to 10000 nM | < 100 nM |  | 
18 | Cc1nc2cc(Cl)c(Nc3nc(=O)n(Cc4ccc[nH]c4=O)c(=O)n3Cc3cc(F)c(F)c(F)c3)cc2s1 [Compound I-0370] | 1000 to 10000 nM | < 100 nM |  | 
19 | O=c1[nH]cccc1Cn1c(=O)nc(Nc2cc3c(cc2Cl)OCCC3)n(Cc2cc(F)c(F)c(F)c2)c1=O [Compound I-0372] | < 1000 nM | < 100 nM |  | 
20 | COc1ccc(Nc2nc(=O)n(-c3cncc(C)c3)c(=O)n2Cc2cc(F)c(F)c(F)c2)cc1 [Compound I-0374] | 1000 to 10000 nM | < 100 nM |  | 
21 | COc1ccc(Nc2nc(=O)n(-c3cncc4ccccc34)c(=O)n2Cc2ccc(F)c(C#N)c2)cc1 [Compound I-0377] |  |  | 72.9 nM | 8 nM
22 | Cn1cc2cc(Nc3nc(=O)n(-c4cncc5ccccc45)c(=O)n3Cc3cc(F)c(F)c(F)c3)c(Cl)cc2n1 [Compound I-0378] | < 1000 nM | < 100 nM |  | 
23 | Cn1cc2cc(Nc3nc(=O)n(-c4cncc5ccccc45)c(=O)n3Cc3ccc(F)c(C#N)c3)c(Cl)cc2n1 [Compound I-0379] | < 1000 nM | < 100 nM |  | 
24 | Cn1cc2cc(Nc3nc(=O)n(-c4cncc5ccccc45)c(=O)n3Cc3cc(F)c(F)c(F)c3)ccc2n1 [Compound I-0380] | < 1000 nM | < 100 nM |  | 
25 | O=c1[nH]cccc1Cn1c(=O)nc(Nc2cc3cn(CCOC(F)(F)F)nc3cc2Cl)n(Cc2cc(F)c(F)c(F)c2)c1=O [Compound I-0381] | 1000 to 10000 nM | < 100 nM |  | 
26 | O=c1[nH]cccc1Cn1c(=O)nc(Nc2cc3cn(C4COC4)nc3cc2Cl)n(Cc2cc(F)c(F)c(F)c2)c1=O [Compound I-0382] | 1000 to 10000 nM | < 100 nM |  | 

Row | Compound | EC50 (SARS-CoV-2; class symbols) | IC50 (SARS-CoV-2 3CL protease; given as class symbols) | EC50 (SARS-CoV-2; CellTiter-Glo 2.0) | IC50 (SARS-CoV-2 3CL protease; RapidFire MS)
27 | Cc1cncc(-n2c(=O)nc(Nc3cc4cn(C)nc4cc3Cl)n(Cc3ccc(F)c(C#N)c3)c2=O)c1 [Compound I-0383] |  |  | 96 nM | 3.4 nM
28 | Cc1cncc(-n2c(=O)nc(Nc3cc4cn(C)nc4cc3F)n(Cc3ccc(F)c(C#N)c3)c2=O)c1 [Compound I-0384] | < 1000 nM | < 100 nM |  | 
29 | Cc1cncc(-n2c(=O)nc(Nc3cc4cn(C)nc4cc3C)n(Cc3ccc(F)c(C#N)c3)c2=O)c1 [Compound I-0385] | < 1000 nM | < 100 nM |  | 
30 | Cc1nc2cc(Cl)c(Nc3nc(=O)n(Cc4cc5ccsc5[nH]c4=O)c(=O)n3Cc3cc(F)c(F)c(F)c3)cc2n1C [Compound I-0390] | 1000 to 10000 nM | < 100 nM | 3160 nM | 4 nM
31 | O=c1[nH]cc(Cl)cc1Cn1c(=O)nc(Nc2cc3c(cc2Cl)OCC3)n(Cc2cc(F)c(F)c(F)c2)c1=O [Compound I-0391] |  |  | 460 nM | 7.6 nM
32 | O=c1[nH]cccc1Cn1c(=O)nc(Nc2ccc(OC3CC3)cc2Cl)n(Cc2cc(F)c(F)c(F)c2)c1=O [Compound I-0392] | 1000 to 10000 nM | < 100 nM |  | 
33 | O=c1[nH]cccc1Cn1c(=O)nc(Nc2cc3cn(CCCOC(F)(F)F)nc3cc2Cl)n(Cc2cc(F)c(F)c(F)c2)c1=O [Compound I-0400] | 1000 to 10000 nM | < 100 nM |  | 
34 | O=c1nc(Nc2cc3cn(CCN4CCOCC4)nc3cc2Cl)n(Cc2cc(F)c(F)c(F)c2)c(=O)n1-c1cncc2ccccc12 [Compound I-0401] | 1000 to 10000 nM | < 100 nM |  | 
35 | C[C@H](O)Cn1cc2cc(Nc3nc(=O)n(Cc4cc(Cl)c[nH]c4=O)c(=O)n3Cc3cc(F)c(F)c(F)c3)c(Cl)cc2n1 [Compound I-0402] | 1000 to 10000 nM | < 100 nM |  | 
36 | COc1ccc(Nc2nc(=O)n(Cc3c[nH]c(=O)[nH]c3=O)c(=O)n2Cc2cc(F)c(F)c(F)c2)c(Cl)c1 [Compound I-0404] | 1000 to 10000 nM | < 100 nM |  | 
37 | O=c1[nH]cc(Cn2c(=O)nc(Nc3cc4c(cc3Cl)OCC4)n(Cc3cc(F)c(F)c(F)c3)c2=O)c(=O)[nH]1 [Compound I-0406] | 1000 to 10000 nM | < 100 nM |  | 
38 | N#Cc1cc(Cn2c(Nc3cc4c(cc3Cl)OCC4)nc(=O)n(Cc3cc(Cl)c[nH]c3=O)c2=O)ccc1F [Compound I-0408] | 1000 to 10000 nM | < 100 nM |  | 
39 | Cn1cnc(Cn2c(=O)nc(Nc3cc4cn(C)nc4cc3Cl)n(Cc3cc(F)c(F)c(F)c3)c2=O)n1 [Compound I-0421] | < 1000 nM | < 100 nM | 450 nM | 10 nM
40 | Cc1nc2cc(Cl)c(Nc3nc(=O)n(Cc4ncn(C)n4)c(=O)n3Cc3cc(F)c(F)c(F)c3)cc2n1C [Compound I-0422] | 1000 to 10000 nM | < 100 nM |  | 
41 | O=c1[nH]cccc1Cn1c(=O)nc(Nc2cc3cn(CC4(O)CCC4)nc3cc2Cl)n(Cc2cc(F)c(F)c(F)c2)c1=O [Compound I-0423] | 1000 to 10000 nM | < 100 nM |  | 
42 | C[C@H](O)Cn1cc2cc(Nc3nc(=O)n(Cc4ccc[nH]c4=O)c(=O)n3Cc3cc(F)c(F)c(F)c3)c(Cl)cc2n1 [Compound I-0424] | 1000 to 10000 nM | < 100 nM |  | 
43 | C[C@@H](O)Cn1cc2cc(Nc3nc(=O)n(Cc4ccc[nH]c4=O)c(=O)n3Cc3cc(F)c(F)c(F)c3)c(Cl)cc2n1 [Compound I-0425] | 1000 to 10000 nM | < 100 nM |  | 
44 | Cn1cnc(Cn2c(=O)nc(Nc3cc4cn(C)nc4cc3Cl)n(Cc3cc(F)c(F)c(F)c3)c2=O)c1 [Compound I-0426] |  |  | 1030 nM | 6.3 nM
45 | N#Cc1cc(Cn2c(Nc3cc4cn(C(F)F)nc4cc3Cl)nc(=O)n(-c3cncc4ccccc34)c2=O)ccc1F [Compound I-0428] | < 1000 nM | < 100 nM |  | 
46 | Cn1cc2cc(Nc3nc(=O)n(-c4cncc5ccccc45)c(=O)n3Cc3ccc(F)c(C#N)c3)c(F)cc2n1 [Compound I-0429] | < 1000 nM | < 100 nM |  | 
47 | Cc1cncc(-n2c(=O)nc(Nc3cc4cn(C(F)F)nc4cc3Cl)n(Cc3ccc(F)c(C#N)c3)c2=O)c1 [Compound I-0430] | < 1000 nM | < 100 nM |  | 
48 | Cc1cc2nn(C)cc2cc1Nc1nc(=O)n(-c2cncc3ccccc23)c(=O)n1Cc1ccc(F)c(C#N)c1 [Compound I-0431] | < 1000 nM | < 100 nM |  | 
49 | Cn1cnc(Cn2c(=O)nc(Nc3cc4cn(CCO)nc4cc3Cl)n(Cc3cc(F)c(F)c(F)c3)c2=O)n1 [Compound I-0432] | 1000 to 10000 nM | < 100 nM |  | 
50 | Cn1cnc(Cn2c(=O)nc(Nc3cc4cn(CC(F)F)nc4cc3Cl)n(Cc3cc(F)c(F)c(F)c3)c2=O)n1 [Compound I-0433] | < 1000 nM | < 100 nM | 720 nM | 10 nM
51 | Cn1cnc(Cn2c(=O)nc(Nc3cc4cn(C(F)F)nc4cc3Cl)n(Cc3cc(F)c(F)c(F)c3)c2=O)n1 [Compound I-0434] | 1000 to 10000 nM | < 100 nM |  | 
52 | N#Cc1cc(Cn2c(Nc3cc4cn(CCO)nc4cc3Cl)nc(=O)n(-c3cccc4ccccc34)c2=O)ccc1F [Compound I-0435] | 1000 to 10000 nM | < 100 nM |  | 
